# Assay results taken from patent US8003734B2, “Biologically tolerated low molecular weight polyethylenimines” (priority 1997, dated 2011).
# Legend:
# [1] = system: pig brain capillary endothelial cells; assay: In-vitro transfection of primary cultures, β-galactosidase reporter gene; assay type: cell-based
# Experimental: The cells, which were incubated at 37° C., 95% relative atmospheric humidity and 5% CO2, were passaged twice a week, after having reached confluence, using trypsin/EGTA solution (2.5% stock solution of trypsin, 50 mM solution of ethylene glycol tetraacetic acid, PBS, pH 7.4, in a ratio of 1:1:8). Since the cells detached from the substratum in cell clusters rather than individually, a ⅛ passage was carried out in each case. Cerebral capillary endothelial cells were isolated and cultured in accordance with the method of Bowman et al. and Mischek et al. [Mischek et al., Cell. Tiss. Res. 256: 221-226 (1989)]. […]
# The ECV 304 cells and 3T3 mouse fibroblasts, which were sown in 3 cm^2 Petri dishes, and the primary endothelial cells, which were sown in 6-well culture plates, were washed with PBS, pH 7.4, immediately before the experiments and provided with new, serum-supplemented medium. […] The cells were subsequently incubated for 60 hours and the luciferase or β-galactosidase activity was determined in analogy with the manufacturer's instructions. […]
# The transfection efficiency of the PEI complexes was determined both with cell lines (3T3 mouse fibroblasts and the human endothelial cell line ECV304) and with primary cultures (pig brain capillary endothelial cells). […]
# L929 mouse fibroblasts = assay: Cytotoxicity study, MTT assay; assay type: cell-based
# Experimental: L929 mouse fibroblasts were cultured under the standard conditions with which the skilled person is familiar. These cells were sown in 96-well cell culture plates at a density of 8000 cells/well and cultured for 24 h before they were used for toxicity experiments.
# The toxicity of the polymers was determined on L929 mouse fibroblasts using the MTT assay in accordance with the method of Mosmann et al. [Mosmann, J. Immunol. Methods 65: 55-63 (1983)]. The polymer dilution series were prepared in DMEM containing 10% FCS and 2 mM glutamine and sterilized by filtration (0.2 μm, Schleicher & Schuell, Dassel). The pH and osmolarity of the solutions were corrected if required. After a pre-incubation of 24 h, the cells were treated with the polymer solutions and incubated for 1, 3, 12 and 24 h. The viability of the cells was quantified UV-photometrically by measuring the formazan concentration.
# In a second series of experiments, the cells were generally only treated with the polymers for 1 h, after which they were washed and then cultured for a further 3, 12 and 24 h in PEI-free cell culture medium. The evaluation was carried out as described above.
# The toxicity of the PEIs was determined in vitro on L929 mouse fibroblasts, which various standard organizations recommend as the standard cell culture model for determining the cytotoxicity and biocompatibility of polymers. […]
substance,measurement,setting,value
polyethylenimine [LMW PEI],"in-vitro maximum tolerable, noncytotoxic dose (MTD) of the complexes",[1],90 μg/10 μg of DNA
same,cytotoxicity for fibroblasts as compared with that of HMW PEI,L929 mouse fibroblasts,markedly reduced
